Data from patent US8501166B2, “Pyrimidinyl indole compounds” (Hutchison Medipharma Limited, priority 2010, dated 2013).

Assays:
IKKβ = biological target: T1, IKKβ (Homo sapiens, UniProt O14920); test: IKKβ kinase assay (Z′-LYTE Assay Kit-Ser/Thr 5 Peptide); assay type: biochemical
T1 sequence (O14920 1-756): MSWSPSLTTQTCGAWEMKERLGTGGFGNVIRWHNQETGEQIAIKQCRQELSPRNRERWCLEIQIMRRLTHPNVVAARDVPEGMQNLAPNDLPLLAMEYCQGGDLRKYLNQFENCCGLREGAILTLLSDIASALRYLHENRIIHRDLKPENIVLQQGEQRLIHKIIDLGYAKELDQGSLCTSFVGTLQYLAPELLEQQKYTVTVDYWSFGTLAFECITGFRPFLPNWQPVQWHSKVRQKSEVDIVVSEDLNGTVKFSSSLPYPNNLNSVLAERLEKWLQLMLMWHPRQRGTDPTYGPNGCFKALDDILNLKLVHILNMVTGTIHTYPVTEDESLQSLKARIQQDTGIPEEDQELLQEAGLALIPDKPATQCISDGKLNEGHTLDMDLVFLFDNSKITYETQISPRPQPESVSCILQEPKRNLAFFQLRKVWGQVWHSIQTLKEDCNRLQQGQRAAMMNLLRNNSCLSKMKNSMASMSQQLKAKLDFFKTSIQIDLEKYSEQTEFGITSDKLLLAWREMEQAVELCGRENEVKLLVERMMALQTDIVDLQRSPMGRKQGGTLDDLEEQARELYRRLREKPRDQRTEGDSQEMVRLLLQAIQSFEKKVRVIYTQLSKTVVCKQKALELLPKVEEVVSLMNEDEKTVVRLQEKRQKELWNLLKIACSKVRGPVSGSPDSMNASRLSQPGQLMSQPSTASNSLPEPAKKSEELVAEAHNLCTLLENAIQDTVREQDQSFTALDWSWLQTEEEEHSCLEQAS
Method: Alternately, the IKKβ kinase assay is performed in vitro using a Z′-LYTE™ Assay Kit-Ser/Thr 5 Peptide (Invitrogen, Cat.No. PV3178). All reactions (20 μL) are started by adding 0.8 μL of the test compound in a DMSO solution, 10 μL of Kinase/Peptide Mixture or Phospho-Peptide solution (Invitrogen, Cat.No. PV3219, diluted with 1.33× Kinase Buffer), 5 μL of 1.33× Kinase Buffer (Invitrogen, Cat.No. PV3189, 5× diluted with distilled water) or ATP Solution (5 μM), and 4.2 μL of distilled water. The 384-well assay plate (Corning, Cat.No. 3575) is mixed and incubated at room temperature for 1 hour. 10 μL of the Development Solution [Development Reagent B (Invitrogen, Cat.No. PV3296)/Development Buffer (Invitrogen, Cat.No. PV3127)=1:128] is then added to each well, mixed and incubated at room temperature for another 1 h. The kinase reaction is then stopped by adding 10 μL of the Stop Reagent (Invitrogen, Cat.No. PV3094), and the plate is read with a Wallac 1420 VICTOR^3 Multilabel Counter (PERKIN ELMER™) at 445 nm and 520 nm fluorescence. The assay has an MSR of 2.14. The compound is initially tested at 8 concentrations (10 μM) to 0.003 μM) using a 1:3 serial dilution scheme.

[1] = tested on: LPS-induced plasma IL-6 production; test: LPS-induced plasma cytokine production in mouse, IL-6; assay type: in vivo, Balb/c mice; settings: oral 1 h before LPS 0.4 mg/kg i.p.
Method: Alternately, the compound is screened for its ability to inhibit the LPS-induced cytokine production in rat plasma according to the method reported in the literature (Ziegelbauer K, Gantner F, Lukacs N W, et al. Br J. Pharmacol. 2005,145(2):178-92). Briefly, Lewis rats (male, body weight 140 g-180 g) are used in the experiments. Animals (8/group) are given 1 to 100 mg/kg of the testing compound (suspension in 35% solutol & 60% PEG400 & 5% PG) or vehicle by oral gavage at 1 h prior to intraperitoneal administration of LPS 0.4 mg/kg. Ninety minutes after the intraperitoneal administration of LPS, blood is collected in heparin anticoagulated tubes to measure TNFα using R&D System ELISA Kit based on the general Kit protocols. The plasma sample is diluted 100 fold with the dilution buffer and 50 μL of diluted sample is used in each measurement. The plate is read on a SPECTRAMAX® M2e Plus Plate Reader and TNFα levels are analyzed based on the standard curve. The drug levels in plasma are measured with LC-MS-MS. […] Alternately, the compound is screened for its ability to inhibit the LPS-induced cytokine production in mouse plasma. Balb/c mice (female, body weight 18-20 g) are used in the experiments. […] The plate is read on a SPECTRMAX® M2e Plus Plate Reader and the data is analyzed using a standard curve.

- IC50 (IKKβ): 58.1 nM
Compound: Cl.O=C(NC1CC1)c1cccc2[nH]c(-c3nc(N[C@@H]4CCC[C@H]4O)ncc3Cl)cc12 [Example 2, 2-{5-Chloro-2-[(1R,2R)-2-hydroxycyclopentylamino]pyrimidin-4-yl}-N-cyclopropyl-1H-indole-4-carboxamide hydrochloride]
- ED50 [1]: 15.1 mg/kg
